# Measurements published in patent publication US20080299538A1, “Pathogen Inactivation of Whole Blood” (CARIDIANBCT BIOTECHNOLOGIES, LLC, priority 2003, published 2008).
# Several values for one entry are separate records, joined by “and”; a condition that tells them apart may be missing. Identical values can stand only once. Like-named read-outs stand apart in the source and are kept apart here.
# Key:
# T cells = experiment: CD69 expression after PMA activation (flow cytometry); type: cell-based; conditions: all energies tested (22, 33 and 44 J/mLRBC)
# Hepatitis A (HAV) = experiment: Virus inactivation in whole blood; type: cell-based; conditions: as a function of illumination energy
# canine parvovirus (CPV) = experiment: Virus inactivation in whole blood; type: cell-based; conditions: as a function of illumination energy
# [1] = tested on: vesicular stomatitis virus (VSV); type: cell-based; conditions: as a function of illumination energy
# [2] = tested on: infectious bovine rhinotracheitis virus (IBR); experiment: Virus inactivation in whole blood; type: cell-based; conditions: as a function of illumination energy
# S. epidermidis = experiment: Low bacteria titer study in whole blood; type: cell-based; parameters: key to Bacteria detected (+) or not detected (−) after treatment: +: some of the replicates of the cultures in the panel grew in under 5 days; −: none of the replicates of the cultures in the panel grew in under 5 days; conditions: for Bacteria detected (+) or not detected (−) after treatment: 110 J/mLRBC (n = 3)
# Source text: (§1) To test whether pathogen inactivation of whole blood was effective in inactivating clinically relevant levels of bacteria which may be present in the whole blood, low titer bacteria studies were done. After pathogen inactivation of whole blood, the whole blood was separated into a red blood cell (RBC) component and platelet rich plasma (PRP) component. A + symbol means that some of the replicates of the cultures in the panel grew in under 5 days. A − symbol means that none of the replicates of the cultures in the panel grew in under 5 days.
# A. baumannii = experiment: Low bacteria titer study in whole blood; type: cell-based; parameters: key: +: some of the replicates of the cultures in the panel grew in under 5 days; −: none of the replicates of the cultures in the panel grew in under 5 days; conditions: 110 J/mLRBC (n = 3)
# Source text: as §1
# S. liquefaciens = experiment: Low bacteria titer study in whole blood; type: cell-based; parameters: key: +: some of the replicates of the cultures in the panel grew in under 5 days; −: none of the replicates of the cultures in the panel grew in under 5 days
# Source text: as §1
# S. pyogenes = experiment: Low bacteria titer study in whole blood; type: cell-based; parameters: key: +: some of the replicates of the cultures in the panel grew in under 5 days; −: none of the replicates of the cultures in the panel grew in under 5 days
# Source text: as §1
# Y. enterocolitica = experiment: Low bacteria titer study in whole blood; type: cell-based; parameters: key: +: some of the replicates of the cultures in the panel grew in under 5 days; −: none of the replicates of the cultures in the panel grew in under 5 days
# Source text: as §1
# red blood cells [3] = experiment: ATP level in stored red blood cells; type: cell-based; conditions: increased energy levels
# Experimental: ATP level or concentration was measured in red blood cells separated from pathogen inactivated whole blood. ATP concentration is a measure of the amount of ATP present in the cells at a given time.
# red blood cells [4] = experiment: Mean osmotic fragility of stored red blood cells; type: cell-based; conditions: stored for 42 days; vs untreated cells
# Experimental: Osmotic fragility during storage of red blood cells separated from pathogen inactivated whole blood was measured. The normal red blood cell is a relatively impermeable biconcave disc which maintains osmotic equilibrium with the surrounding medium. As the surrounding medium becomes hypotonic, fluid will be taken into the cell to maintain stability. Eventually under very hypotonic conditions the cell will fill to capacity and rupture. Red blood cells with damaged membranes have a decreased capacity to expand, and will rupture in mildly hypotonic conditions that fail to lyse normal red cells. […] Mean osmotic fragility (MOF) is a measure of red blood cell membrane fragility. The higher the MOF, the more fragile the red blood cells are. MOF is the concentration of NaCl where 50% of the red blood cells hemolyze.
# platelets = experiment: Platelet quality during storage; type: cell-based
# Experimental: Platelet quality is assessed with measurements of pH, swirl, lactate production rate and glucose consumption rate on Days 1 and 5.
# Platelets were separated from pathogen inactivated whole blood and markers of platelet quality were measured.
# white blood cells (WBCs) [5] = experiment: WBC functionality, all tested stimuli (summary statements); type: cell-based
# white blood cells (WBCs) [6] = conditions: for % inhibition of proliferation: Allorecognition: treated responders
# white blood cells (WBCs) [7] = conditions: Allostimulation: treated stimulators
# white blood cells (WBCs) [8] = experiment: WBC proliferation in response to PHA (thymidine incorporation)
# white blood cells (WBCs) [9] = experiment: Cytokine production in response to LPS (Cytometric Bead Assay); conditions: for % inhibition of IFN-γ production / % inhibition of IL-2 production / % inhibition of IL-4 production / % inhibition of IL-5 production / % inhibition of IL-10 production / % inhibition of TNFα production: LPS, TH1/TH2 cytokines
# [10] = over 5 days of storage at higher energy levels
structure (smiles),measurement,setting,value
"Cc1cc2nc3c(=O)[nH]c(=O)nc-3n(C[C@H](O)[C@H](O)[C@H](O)CO)c2cc1C [riboflavin, 7,8-dimethyl-10-ribityl isoalloxazine]",expression of CD69 on T cells after PMA activation,T cells,inhibited expression of CD69
same,log reduction of virus,Hepatitis A (HAV),increases linearly with respect to energy
same,log reduction of virus,canine parvovirus (CPV),increases linearly with respect to energy
same,log reduction of virus,[1],increases linearly with respect to energy
same,log reduction of virus,[2],increases linearly with respect to energy
same,Bacteria detected (+) or not detected (−) after treatment,S. epidermidis; PRP,−
same,Bacteria detected (+) or not detected (−) after treatment,S. epidermidis; RBC,+
same,bacterial growth in red blood cells,"S. epidermidis; 110 J/mLRBC, RBC",grew
same,Bacteria detected (+) or not detected (−) after treatment,A. baumannii; PRP,−
same,Bacteria detected (+) or not detected (−) after treatment,A. baumannii; RBC,−
same,Bacteria detected (+) or not detected (−) after treatment,"S. liquefaciens; 80 J/mLRBC (n = 3), PRP",−
same,Bacteria detected (+) or not detected (−) after treatment,"S. liquefaciens; 80 J/mLRBC (n = 3), RBC",−
same,Bacteria detected (+) or not detected (−) after treatment,"S. liquefaciens; 110 J/mLRBC (n = 3), PRP",−
same,Bacteria detected (+) or not detected (−) after treatment,"S. liquefaciens; 110 J/mLRBC (n = 3), RBC",−
same,Bacteria detected (+) or not detected (−) after treatment,"S. pyogenes; 80 J/mLRBC (n = 3), PRP",−
same,Bacteria detected (+) or not detected (−) after treatment,"S. pyogenes; 110 J/mLRBC (n = 3), PRP",−
same,Bacteria detected (+) or not detected (−) after treatment,"S. pyogenes; 110 J/mLRBC (n = 3), RBC",−
same,Bacteria detected (+) or not detected (−) after treatment,"Y. enterocolitica; 80 J/mLRBC (n = 3), PRP",−
same,Bacteria detected (+) or not detected (−) after treatment,"Y. enterocolitica; 80 J/mLRBC (n = 3), RBC",−
same,Bacteria detected (+) or not detected (−) after treatment,"Y. enterocolitica; 110 J/mLRBC (n = 3), PRP",−
same,Bacteria detected (+) or not detected (−) after treatment,"Y. enterocolitica; 110 J/mLRBC (n = 3), RBC",−
same,total concentration of ATP in red blood cells,red blood cells [3],decrease the total concentration of ATP
same,osmotic fragility (MOF) of red blood cells,red blood cells [4],slightly more fragile than untreated cells
same,platelet carbon dioxide production,platelets; [10],appears to decrease
same,platelet glucose consumption,platelets; [10],appears to decrease
same,platelet lactate production,platelets; [10],appears to increase
same,platelet oxygen consumption,platelets; [10],appears to increase
same,platelet pH,"platelets; over 5 days of storage, treated and untreated",remains the same
same,inhibition of WBC proliferation / decrease of proliferative response,"white blood cells (WBCs) [5]; all tested stimuli and antigen presentation, all energies tested, stimulated control vs stimulated treated cells",93-99% and > 90%
same,functional inactivation of white blood cells in whole blood,white blood cells (WBCs) [5]; riboflavin and light,functionally inactivates the white blood cells
same,"proliferation in response to PHA, anti-CD3/CD28 and allogeneic stimulator cells",white blood cells (WBCs) [5]; riboflavin+UV light at all energies tested,inhibited proliferation
same,% inhibition of proliferation,white blood cells (WBCs) [6]; 22 J/mlRBC,95 ± 3%
same,% inhibition of proliferation,white blood cells (WBCs) [6]; 33 J/mlRBC,95 ± 2%
same,% inhibition of proliferation,white blood cells (WBCs) [6]; 44 J/mlRBC,96 ± 2%
same,proliferation of treated WBCs in response to allogeneic stimulator cells,white blood cells (WBCs) [6]; treated WBCs as responder cells in MLC,not able to proliferate
same,% inhibition of proliferation,white blood cells (WBCs) [7]; 22 J/mlRBC,93 ± 3%
same,% inhibition of proliferation,white blood cells (WBCs) [7]; 33 J/mlRBC,96 ± 2%
same,% inhibition of proliferation,white blood cells (WBCs) [7]; 44 J/mlRBC,95 ± 2%
same,% inhibition of proliferation,white blood cells (WBCs) [8]; 22 J/mlRBC,98 ± 1%
same,% inhibition of proliferation,white blood cells (WBCs) [8]; 33 J/mlRBC,99 ± 1%
same,induced proliferation of treated WBCs,"white blood cells (WBCs) [8]; 33 J/mlRBC and above, 3 days of incubation",no detectable induced proliferation
same,% inhibition of proliferation,white blood cells (WBCs) [8]; 44 J/mlRBC,99 ± 0%
same,inflammatory cytokine production in response to LPS,white blood cells (WBCs) [9],"reduced with treatment, but not to medium control levels"
same,TH1/TH2 cytokine levels induced by LPS,white blood cells (WBCs) [9]; 44 J/mlRBC,reduced to medium control levels
same,% inhibition of IFN-γ production,white blood cells (WBCs) [9]; 22 J/mlRBC,63 ± 71%
same,% inhibition of IL-2 production,white blood cells (WBCs) [9]; 22 J/mlRBC,63 ± 54%
same,% inhibition of IL-4 production,white blood cells (WBCs) [9]; 22 J/mlRBC,59 ± 65%
same,% inhibition of IL-5 production,white blood cells (WBCs) [9]; 22 J/mlRBC,89 ± 2%
same,% inhibition of IL-10 production,white blood cells (WBCs) [9]; 22 J/mlRBC,66 ± 21%
same,% inhibition of TNFα production,white blood cells (WBCs) [9]; 22 J/mlRBC,45 ± 53%
same,% inhibition of IFN-γ production,white blood cells (WBCs) [9]; 33 J/mlRBC,93 ± 8%
same,% inhibition of IL-4 production,white blood cells (WBCs) [9]; 33 J/mlRBC,90 ± 4%
same,% inhibition of IL-10 production,white blood cells (WBCs) [9]; 33 J/mlRBC,94 ± 4%
same,% inhibition of TNFα production,white blood cells (WBCs) [9]; 33 J/mlRBC,94 ± 5%
same,% inhibition of IFN-γ production,white blood cells (WBCs) [9]; 44 J/mlRBC,93 ± 7%
same,% inhibition of IL-2 production,white blood cells (WBCs) [9]; 44 J/mlRBC,88 ± 4%
same,% inhibition of IL-4 production,white blood cells (WBCs) [9]; 44 J/mlRBC,90 ± 4%
same,% inhibition of IL-5 production,white blood cells (WBCs) [9]; 44 J/mlRBC,91 ± 6%
same,% inhibition of IL-10 production,white blood cells (WBCs) [9]; 44 J/mlRBC,99 ± 1%
same,% inhibition of TNFα production,white blood cells (WBCs) [9]; 44 J/mlRBC,94 ± 8%
